Source: paper PMC8882856, “The affinity and selectivity of α‐adrenoceptor antagonists, antidepressants and antipsychotics for the human α2A, α2B, and α2C‐adrenoceptors and comparison with human α1 and β‐adrenoceptors” (Pharmacology Research & Perspectives, 2022)
Where two headings read alike, the source gives them in different places. One block for each compound: values may come before it.

Assays:
[1] = molecular target: human β2‐adrenoceptor (Homo sapiens, UniProt P07550); assay type: binding; details: for IC50 (log) β2, IC50>top concentration used / IC50: ^3H‐CGP12177, log value; for IC50: read-out: IC50 (log) β2, IC50>top concentration used (converted)
[2] = molecular target: T1, human α2A‐adrenoceptor (Homo sapiens, UniProt P08913)
T1 sequence (P08913 1-465): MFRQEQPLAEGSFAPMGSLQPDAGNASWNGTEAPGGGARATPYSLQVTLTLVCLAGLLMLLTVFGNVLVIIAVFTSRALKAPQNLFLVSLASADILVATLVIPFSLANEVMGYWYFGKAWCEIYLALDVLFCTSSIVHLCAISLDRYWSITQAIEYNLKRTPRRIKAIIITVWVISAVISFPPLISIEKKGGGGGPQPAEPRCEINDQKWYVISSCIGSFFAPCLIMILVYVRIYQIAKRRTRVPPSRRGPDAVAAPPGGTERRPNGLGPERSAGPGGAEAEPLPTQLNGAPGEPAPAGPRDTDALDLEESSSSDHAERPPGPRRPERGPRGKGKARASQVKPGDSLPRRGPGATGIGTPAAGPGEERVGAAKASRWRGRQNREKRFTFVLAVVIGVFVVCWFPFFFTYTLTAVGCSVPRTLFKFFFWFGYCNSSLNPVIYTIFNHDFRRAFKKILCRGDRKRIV

[3] = molecular target: T2, human α2B‐adrenoceptor (Homo sapiens, UniProt P18089)
T2 sequence (P18089 1-450): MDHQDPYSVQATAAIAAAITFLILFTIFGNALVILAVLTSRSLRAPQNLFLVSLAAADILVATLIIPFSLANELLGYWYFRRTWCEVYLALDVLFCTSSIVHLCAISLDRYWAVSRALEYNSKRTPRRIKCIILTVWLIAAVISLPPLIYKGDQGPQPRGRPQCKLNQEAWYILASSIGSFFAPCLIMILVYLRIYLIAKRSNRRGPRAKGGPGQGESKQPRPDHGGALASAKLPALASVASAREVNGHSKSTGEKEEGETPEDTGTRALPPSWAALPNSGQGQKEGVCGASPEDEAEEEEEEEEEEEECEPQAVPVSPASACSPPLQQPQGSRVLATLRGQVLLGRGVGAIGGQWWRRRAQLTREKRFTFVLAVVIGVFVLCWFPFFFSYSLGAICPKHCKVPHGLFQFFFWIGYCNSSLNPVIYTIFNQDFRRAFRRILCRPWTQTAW

[4] = molecular target: T3, human α2C‐adrenoceptor (Homo sapiens, UniProt P18825)
T3 sequence (P18825 1-462): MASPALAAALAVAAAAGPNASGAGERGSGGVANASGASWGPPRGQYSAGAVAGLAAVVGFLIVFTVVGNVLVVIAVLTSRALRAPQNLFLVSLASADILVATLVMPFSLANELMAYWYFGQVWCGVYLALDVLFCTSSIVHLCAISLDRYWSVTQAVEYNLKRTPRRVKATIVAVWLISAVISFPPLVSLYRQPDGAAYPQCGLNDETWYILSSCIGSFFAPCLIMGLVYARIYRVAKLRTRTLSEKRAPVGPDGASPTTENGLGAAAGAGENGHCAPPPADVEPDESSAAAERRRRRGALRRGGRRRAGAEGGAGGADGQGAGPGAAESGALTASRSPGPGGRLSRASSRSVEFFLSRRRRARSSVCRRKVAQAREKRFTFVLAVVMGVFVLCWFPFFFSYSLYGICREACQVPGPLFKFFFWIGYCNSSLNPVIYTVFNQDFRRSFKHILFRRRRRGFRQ

[5] = molecular target: T4, human β1‐adrenoceptor (Homo sapiens, UniProt P08588); details: for IC50 (log) β1, IC50>top concentration used: ^3H‐CGP12177, log value
[6] = molecular target: T2, human α2B‐adrenoceptor; assay: ^3H‐rauwolscine whole cell competition binding, CHO‐α2B cells; details: for Selectivity ratio α2A vs α2B (higher affinity for α2B) / Selectivity ratio α2B vs α2C (higher affinity for α2B): ratio of KD values
[7] = molecular target: T3, human α2C‐adrenoceptor; assay: ^3H‐rauwolscine whole cell competition binding, CHO‐α2C cells; details: for Selectivity ratio α2A vs α2C (higher affinity for α2C) / Selectivity ratio α2B vs α2C (higher affinity for α2C): ratio of KD values
[8] = molecular target: T1, human α2A‐adrenoceptor; assay: cell-based
[9] = molecular target: T2, human α2B‐adrenoceptor; assay: cell-based
[10] = molecular target: T3, human α2C‐adrenoceptor; assay: cell-based
[11] = molecular target: T4, human β1‐adrenoceptor; assay: cell-based
[12] = molecular target: T1, human α2A‐adrenoceptor; assay: ^3H‐rauwolscine whole cell competition binding, CHO‐α2A cells; details: ratio of KD values
[13] = molecular target: human α1A‐adrenoceptor; parameters: method as in PMID 32608144; details: identical whole cell method; ref [33]; read-out: α1A‐adrenoceptor affinity; cited from earlier work
[14] = ^3H‐CGP12177 whole cell binding, log values, mean ± s.e.mean, ^app = apparent KD, 'no binding to' = log top concentration

Chain of human β2‐adrenoceptor (P07550 whole entry): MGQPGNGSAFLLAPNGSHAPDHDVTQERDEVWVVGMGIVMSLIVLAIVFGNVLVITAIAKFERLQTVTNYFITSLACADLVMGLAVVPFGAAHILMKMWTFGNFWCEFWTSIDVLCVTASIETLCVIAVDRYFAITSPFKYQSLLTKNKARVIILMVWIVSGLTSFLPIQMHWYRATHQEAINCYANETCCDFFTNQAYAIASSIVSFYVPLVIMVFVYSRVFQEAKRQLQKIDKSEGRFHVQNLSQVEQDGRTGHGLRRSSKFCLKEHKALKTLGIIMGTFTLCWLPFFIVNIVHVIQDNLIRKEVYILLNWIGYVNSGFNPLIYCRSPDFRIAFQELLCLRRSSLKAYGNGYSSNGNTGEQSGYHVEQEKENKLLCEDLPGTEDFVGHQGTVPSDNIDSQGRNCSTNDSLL
T4 sequence (P08588 whole entry): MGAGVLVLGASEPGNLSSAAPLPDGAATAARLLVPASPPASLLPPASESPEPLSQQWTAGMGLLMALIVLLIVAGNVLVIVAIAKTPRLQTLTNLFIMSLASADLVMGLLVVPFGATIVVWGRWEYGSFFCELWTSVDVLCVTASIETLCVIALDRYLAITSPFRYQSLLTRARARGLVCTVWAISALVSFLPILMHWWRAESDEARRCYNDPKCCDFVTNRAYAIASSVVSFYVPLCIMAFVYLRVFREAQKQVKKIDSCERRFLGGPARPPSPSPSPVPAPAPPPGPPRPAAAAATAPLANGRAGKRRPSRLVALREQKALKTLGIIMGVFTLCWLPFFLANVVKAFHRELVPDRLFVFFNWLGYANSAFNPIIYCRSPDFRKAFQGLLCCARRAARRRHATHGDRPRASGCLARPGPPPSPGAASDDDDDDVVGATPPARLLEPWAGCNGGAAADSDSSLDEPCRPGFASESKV

Compound: O=C1c2ccccc2CCC1CNCCc1ccc(O)cc1 (centres unmarked) [HEAT]
IC50 (log) β2, IC50>top concentration used [1]: IC50>−4
Kd [2]: 0.0355 µM
Kd [3]: 0.0191 µM
Kd [4]: 0.00891 µM
IC50 (log) β1, IC50>top concentration used [5]: IC50 ~−4.5
Selectivity ratio α2A vs α2B (higher affinity for α2B) [6]: 1.9
Selectivity ratio α2A vs α2C (higher affinity for α2C) [7]: 4.0
Selectivity ratio α2B vs α2C (higher affinity for α2C) [7]: 2.1

Compound: O=C1CCC(=O)N1C[C@H]1CC[C@H]2CN(c3ncccn3)CCN2C1 [sunepitron]
IC50 [1]: > 1000 µM
Kd [8]: 0.0525 µM
Kd [9]: 0.224 µM
Kd [10]: 0.00776 µM
IC50 [11]: > 1000 µM
Selectivity ratio α2A vs α2B (higher affinity for α2A) [12]: 4.3
Selectivity ratio α2A vs α2C (higher affinity for α2C) [7]: 6.8
Selectivity ratio α2B vs α2C (higher affinity for α2C) [7]: 28.8

Compound: COc1ccccc1N1CCN(CC2CN3C(=O)N(C)c4ccccc4C3=N2)CC1 (centres unmarked) [2‐MPMDQ]
IC50 (log) β2, IC50>top concentration used [1]: IC50>−5
Kd [2]: 0.162 µM
Kd [3]: 1.15 µM
Kd [4]: 0.0316 µM
IC50 (log) β1, IC50>top concentration used [5]: IC50>−5
Selectivity ratio α2A vs α2B (higher affinity for α2A) [12]: 7.1
Selectivity ratio α2A vs α2C (higher affinity for α2C) [7]: 5.1
Selectivity ratio α2B vs α2C (higher affinity for α2C) [7]: 36.3

Compound: Cc1nc2n(c(=O)c1CCN1CCC(c3noc4cc(F)ccc34)CC1)CCCC2O (centres unmarked) [paliperidone]
IC50 [1]: > 31.6 µM
Kd [13]: 0.004 µM
IC50 [11]: > 31.6 µM
Kd [7]: 0.014 µM

Compound: CN(CCCN1c2ccccc2CCc2ccccc21)CC(=O)c1ccc(Cl)cc1 [lofepramine]
IC50 [1]: > 100 µM
Kd [8]: 13.8 µM
Kd [9]: 2.51 µM
Kd [10]: 5.25 µM
IC50 [11]: > 100 µM
Selectivity ratio α2A vs α2B (higher affinity for α2B) [6]: 5.5
Selectivity ratio α2B vs α2C (higher affinity for α2B) [6]: 2.1
Selectivity ratio α2A vs α2C (higher affinity for α2C) [7]: 2.6

Compound: O=C(NC1CCN(CCc2c[nH]c3ccccc23)CC1)c1ccccc1 [indoramin]
Kd ([1]; ^3H‐CGP12177 whole cell binding, log values, mean ± s.e.mean, ^app = apparent KD, 'no binding to' = log top concentration, read-out: Log KD β2 (converted)): 5.37 µM
Kd [8]: 7.41 µM
Kd [9]: 3.47 µM
Kd [10]: 1.58 µM
Kd [11]: 18.6 µM
Selectivity ratio α2A vs α2B (higher affinity for α2B) [6]: 2.1
Selectivity ratio α2A vs α2C (higher affinity for α2C) [7]: 4.7
Selectivity ratio α2B vs α2C (higher affinity for α2C) [7]: 2.2

Compound: O=C1Nc2ccccc2C2=NC(CN3CCN(c4ccccc4)CC3)CN12 (centres unmarked) [2‐PMDQ]
IC50 (log) β2, IC50>top concentration used [1]: IC50>−4
Kd [2]: 0.148 µM
Kd [3]: 0.724 µM
Kd [4]: 0.0851 µM
Log KD β1 [5, 14]: No binding −4
Selectivity ratio α2A vs α2B (higher affinity for α2A) [12]: 4.9
Selectivity ratio α2A vs α2C (higher affinity for α2C) [7]: 1.7
Selectivity ratio α2B vs α2C (higher affinity for α2C) [7]: 8.5

Next, values leading:

Log KD β2 [1, 14]: −4.77 ± 0.07
Kd [2]: 0.1 µM
Kd [3]: 0.339 µM
Kd [4]: 0.0151 µM
IC50 (log) β1, IC50>top concentration used [5]: IC50>−3
Selectivity ratio α2A vs α2B (higher affinity for α2A) [12]: 3.4
Selectivity ratio α2A vs α2C (higher affinity for α2C) [7]: 6.6
Selectivity ratio α2B vs α2C (higher affinity for α2C) [7]: 22.4
Compound: Cc1c[nH]c(=O)n(CCCN2CCN(c3ccccc3OCC(F)(F)F)CC2)c1=O [RS100329]

IC50 (log) β2, IC50>top concentration used [1]: IC50>−5
Kd [2]: 0.24 µM
Kd [3]: 0.0158 µM
Kd [4]: 0.0661 µM
IC50 (log) β1, IC50>top concentration used [5]: IC50>−5
selectivity α2B versus α2C [6]: less than 5 fold
Selectivity ratio α2A vs α2B (higher affinity for α2B) [6]: 15.1
Selectivity ratio α2B vs α2C (higher affinity for α2B) [6]: 4.2
Selectivity ratio α2A vs α2C (higher affinity for α2C) [7]: 3.6
Compound: COc1ccc(NC(=O)N2CCc3c2ccc2ccccc32)cc1N1CCN(C)CC1 [S32212]

Kd ([1]; this study, read-out: β2‐adrenoceptor affinity): 0.178 µM
Kd [8]: 2.34 µM
Kd [9]: 4.79 µM
Kd [10]: 1.45 µM
Kd [11]: 0.427 µM
Selectivity ratio α2A vs α2B (higher affinity for α2A) [12]: 2.0
Selectivity ratio α2A vs α2C (higher affinity for α2C) [7]: 1.6
Selectivity ratio α2B vs α2C (higher affinity for α2C) [7]: 3.3
Compound: Cc1ccc(Sc2ccccc2N2CCNCC2)c(C)c1 [vortioxetine]
